The results in this text go back to PubChem BioAssay (NCI).

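Grown in 96-well plates, cells were treated for 48 hours with each compound at five concentrations. Insufficient inhibition: endpoint recorded as highest concentration tested. The concentration for full growth arrest is given as TGI.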 Where a SMILES comes first, the peptide text is derived from it. The star is where a group is joined. Boc = CC(C)(C)OC(=O)*

The first assay has as its system CCRF-CEM leukemia. The experiment in a line: NCI-60 cell line screen, 48 h.
For the compound `C=CC[C@@H](N)C(=O)N(C)[C@@H](C)[C@@H](O)c1ccccc1`, the TGI is greater than 100 µM.
Take `CC(=O)CN(Cc1cc(C)c2c(c1)c1ccccc1n2Cc1ccccc1)S(=O)(=O)c1ccc(C)cc1`: the TGI was greater than 100 µM.
As for `O=C1NC(=O)C2C(=O)NC(=O)C1C2c1c(Cl)cccc1Cl` (stereo not given), the TGI is greater than 69.6 µM.
Turning to `CCC(CCCN)Nc1cc(OC)cc2c(C)ccnc12` (stereo not given), the TGI was 52.6 µM.

The next assay has as its system SNB-75 CNS. The experiment in a line: NCI-60 cell line screen, 48 h.
With `COc1ccc2c(c1)C(=O)C1CC(=O)CCC21` (stereo not given), the TGI is greater than 100 µM.
For `Cc1n[nH]c(=O)n1N1C(=O)CCCC1=O`, the TGI is greater than 100 µM.
As for `Cc1ccccc1-n1c(=O)c2ncn(C3CCCO3)c2n(-c2ccccc2C)c1=S` (stereo not given), the TGI was greater than 100 µM.
In the case of `NC(N)=NCC[C@H](NC(=O)OCCCCCn1ccc(=O)[nH]c1=O)C(=O)O`, the TGI was greater than 100 µM.
For `CSc1nc2c(c(=O)[nH]1)N=C(c1ccc([N+](=O)[O-])cc1)CC(c1ccccc1)N2` (stereo not given), the TGI was found to be 74.7 µM.
The compound `CN(C)c1ccc(NN=C2SC(=Nc3ccccc3)C(=Nc3ccccc3)S2)cc1` came in with a TGI greater than 100 µM.
`CCOC(=O)C1=NOC2(C=C(Br)C(=O)C(Br)=C2)C1` registered a TGI of 33.4 µM.
On to `O=c1[nH]cc(-c2c[nH]c3ccccc23)nc1-c1c[nH]c2ccccc12`, for which the TGI was determined as 23.7 µM.
The compound `CC(C)(C)OC(=O)NC(Cc1ccc(O)cc1)C(=O)N1CCCC1C(=O)O` (stereo not drawn) (Boc-Tyr-Pro-OH; configuration not given here) registered a TGI greater than 100 µM.
Turning to `Nc1n[n+](CC(=O)c2ccccc2)c2sc(-c3ccccc3)nn12`, the TGI is greater than 100 µM.
Still for that read-out and setting: to `O=C(O)c1ccc(C2COc3ccc(Cl)cc3C2)cc1` (stereo not given) belongs greater than 100 µM.
In turn, `CC(=O)NC(CCCNC(=O)N(CCCl)N=O)C(=O)NCc1ccccc1` (stereo not given) gave a TGI greater than 100 µM.
For `COC(=O)[C@H](CCSC)NC(=O)N[C@H](C)c1ccccc1`, the TGI is greater than 100 µM.
On the same count and under the same terms, next, `CCN1C(=O)c2cc(OC)c(OC)cc2C(=O)C12OC(=O)c1cc3c(cc12)OCO3` (stereo not given): 48.5 µM; `C=CC[C@@H](N)C(=O)N(C)[C@@H](C)[C@@H](O)c1ccccc1`: greater than 100 µM; `CC(=O)CN(Cc1cc(C)c2c(c1)c1ccccc1n2Cc1ccccc1)S(=O)(=O)c1ccc(C)cc1`: greater than 100 µM.
Turning to `O=C1NC(=O)C2C(=O)NC(=O)C1C2c1c(Cl)cccc1Cl` (stereo not given), the TGI was greater than 100 µM.
For the compound `CCC(CCCN)Nc1cc(OC)cc2c(C)ccnc12` (stereo not given), the TGI was determined as 25.3 µM.

For another assay, the system named is COLO 205 colon. The experiment in a line: NCI-60 cell line screen, 48 h.
`COc1ccc2c(c1)C(=O)C1CC(=O)CCC21` (stereo not given) yielded a TGI greater than 100 µM.
The same measure, in the same setting: to `Cc1n[nH]c(=O)n1N1C(=O)CCCC1=O` belongs greater than 100 µM; to `Cc1ccccc1-n1c(=O)c2ncn(C3CCCO3)c2n(-c2ccccc2C)c1=S` (stereo not given), greater than 100 µM.
With `NC(N)=NCC[C@H](NC(=O)OCCCCCn1ccc(=O)[nH]c1=O)C(=O)O`, the TGI is greater than 100 µM.
On the same count and under the same terms, to `CSc1nc2c(c(=O)[nH]1)N=C(c1ccc([N+](=O)[O-])cc1)CC(c1ccccc1)N2` (stereo not given) belongs greater than 100 µM.
In turn, `CN(C)c1ccc(NN=C2SC(=Nc3ccccc3)C(=Nc3ccccc3)S2)cc1` registered a TGI greater than 100 µM.
Compound `CCOC(=O)C1=NOC2(C=C(Br)C(=O)C(Br)=C2)C1` had a TGI of 2.7 µM.
Compound `O=c1[nH]cc(-c2c[nH]c3ccccc23)nc1-c1c[nH]c2ccccc12` yielded a TGI of 23.2 µM.
As for `CC(C)(C)OC(=O)NC(Cc1ccc(O)cc1)C(=O)N1CCCC1C(=O)O` (stereo not drawn) (Boc-Tyr-Pro-OH; configuration not given here), the TGI was greater than 100 µM.
For the compound `Nc1n[n+](CC(=O)c2ccccc2)c2sc(-c3ccccc3)nn12`, the TGI is greater than 100 µM.
For the compound `O=C(O)c1ccc(C2COc3ccc(Cl)cc3C2)cc1` (stereo not given), the TGI is greater than 100 µM.
`CC(=O)NC(CCCNC(=O)N(CCCl)N=O)C(=O)NCc1ccccc1` (stereo not given) had a TGI greater than 100 µM.
`COC(=O)[C@H](CCSC)NC(=O)N[C@H](C)c1ccccc1` showed a TGI greater than 100 µM.
Take `CCN1C(=O)c2cc(OC)c(OC)cc2C(=O)C12OC(=O)c1cc3c(cc12)OCO3` (stereo not given): the TGI is greater than 100 µM.
Consider `C=CC[C@@H](N)C(=O)N(C)[C@@H](C)[C@@H](O)c1ccccc1`, for which the TGI was greater than 100 µM.
`CC(=O)CN(Cc1cc(C)c2c(c1)c1ccccc1n2Cc1ccccc1)S(=O)(=O)c1ccc(C)cc1`: the TGI is greater than 100 µM.
On the same count and under the same terms, to `O=C1NC(=O)C2C(=O)NC(=O)C1C2c1c(Cl)cccc1Cl` (stereo not given) belongs greater than 56.3 µM; to `CCC(CCCN)Nc1cc(OC)cc2c(C)ccnc12` (stereo not given), 47.5 µM.

A further assay has as its system SN12C renal. The assay is described as follows: NCI-60 cell line screen, 48 h.
Take `COc1ccc2c(c1)C(=O)C1CC(=O)CCC21` (stereo not given): the TGI was greater than 100 µM.
As for `Cc1n[nH]c(=O)n1N1C(=O)CCCC1=O`, the TGI is greater than 100 µM.
As for `Cc1ccccc1-n1c(=O)c2ncn(C3CCCO3)c2n(-c2ccccc2C)c1=S` (stereo not given), the TGI is greater than 100 µM.
Same read-out and setting: next, `NC(N)=NCC[C@H](NC(=O)OCCCCCn1ccc(=O)[nH]c1=O)C(=O)O`: greater than 100 µM; `CSc1nc2c(c(=O)[nH]1)N=C(c1ccc([N+](=O)[O-])cc1)CC(c1ccccc1)N2` (stereo not given): greater than 100 µM; `CN(C)c1ccc(NN=C2SC(=Nc3ccccc3)C(=Nc3ccccc3)S2)cc1`: greater than 100 µM.
In turn, `CCOC(=O)C1=NOC2(C=C(Br)C(=O)C(Br)=C2)C1` had a TGI of 19.6 µM.
Same read-out and setting: next, `O=c1[nH]cc(-c2c[nH]c3ccccc23)nc1-c1c[nH]c2ccccc12`: 33.4 µM; `CC(C)(C)OC(=O)NC(Cc1ccc(O)cc1)C(=O)N1CCCC1C(=O)O` (stereo not drawn) (Boc-Tyr-Pro-OH; configuration not given here): greater than 100 µM.
`Nc1n[n+](CC(=O)c2ccccc2)c2sc(-c3ccccc3)nn12` displayed a TGI greater than 100 µM.
As to `O=C(O)c1ccc(C2COc3ccc(Cl)cc3C2)cc1` (stereo not given), the TGI was greater than 100 µM.
Turning to `CC(=O)NC(CCCNC(=O)N(CCCl)N=O)C(=O)NCc1ccccc1` (stereo not given), the TGI is greater than 100 µM.
In the case of `COC(=O)[C@H](CCSC)NC(=O)N[C@H](C)c1ccccc1`, the TGI was greater than 100 µM.
`CCN1C(=O)c2cc(OC)c(OC)cc2C(=O)C12OC(=O)c1cc3c(cc12)OCO3` (stereo not given) registered a TGI greater than 100 µM.
`O=C1NC(=O)C2C(=O)NC(=O)C1C2c1c(Cl)cccc1Cl` (stereo not given) had a TGI greater than 100 µM.
Take `CCC(CCCN)Nc1cc(OC)cc2c(C)ccnc12` (stereo not given): the TGI was 53.5 µM.

The test system of a further assay is SK-OV-3 ovarian. The assay is described as follows: NCI-60 cell line screen, 48 h.
Consider `COc1ccc2c(c1)C(=O)C1CC(=O)CCC21` (stereo not given), for which the TGI was greater than 100 µM.
`Cc1n[nH]c(=O)n1N1C(=O)CCCC1=O` returned a TGI greater than 100 µM.
In turn, `Cc1ccccc1-n1c(=O)c2ncn(C3CCCO3)c2n(-c2ccccc2C)c1=S` (stereo not given) showed a TGI greater than 100 µM.
`NC(N)=NCC[C@H](NC(=O)OCCCCCn1ccc(=O)[nH]c1=O)C(=O)O` had a TGI greater than 100 µM.
In turn, `CN(C)c1ccc(NN=C2SC(=Nc3ccccc3)C(=Nc3ccccc3)S2)cc1` displayed a TGI greater than 100 µM.
On the same count and under the same terms, next, `CCOC(=O)C1=NOC2(C=C(Br)C(=O)C(Br)=C2)C1`: 21.1 µM; `O=c1[nH]cc(-c2c[nH]c3ccccc23)nc1-c1c[nH]c2ccccc12`: 26.2 µM.
With `CC(C)(C)OC(=O)NC(Cc1ccc(O)cc1)C(=O)N1CCCC1C(=O)O` (stereo not drawn) (Boc-Tyr-Pro-OH; configuration not given here), the TGI is greater than 100 µM.
With `Nc1n[n+](CC(=O)c2ccccc2)c2sc(-c3ccccc3)nn12`, the TGI is greater than 100 µM.
Regarding `O=C(O)c1ccc(C2COc3ccc(Cl)cc3C2)cc1` (stereo not given), the TGI was greater than 100 µM.
Still for that read-out and setting: next, `COC(=O)[C@H](CCSC)NC(=O)N[C@H](C)c1ccccc1`: greater than 100 µM; `C=CC[C@@H](N)C(=O)N(C)[C@@H](C)[C@@H](O)c1ccccc1`: greater than 100 µM; `CC(=O)CN(Cc1cc(C)c2c(c1)c1ccccc1n2Cc1ccccc1)S(=O)(=O)c1ccc(C)cc1`: greater than 100 µM.
Consider `O=C1NC(=O)C2C(=O)NC(=O)C1C2c1c(Cl)cccc1Cl` (stereo not given), for which the TGI is greater than 100 µM.
